This is an account of results in patent publication US10294229B2, “Heteroaryl substituted aminopyridine compounds” (BRISTOL-MYERS SQUIBB COMPANY, priority 2015, dated 2019).

Usually EC50 stands for the concentration needed to bring the measured effect to its halfway point. A lower EC50 goes with higher potency in that assay. The term IC50 denotes the midpoint of a concentration-inhibition curve. A word on the Papp: it is a coefficient for how fast a substance crosses the barrier. A low value points to slow passage.

The test system of data set [1] is Human whole blood stimulated with a TLR2 agonist (lipoteichoic acid), IL-6 levels. The data set is described as follows: IRAK4 Whole Blood Assay. The conditions noted are these: Homo sapiens, lipoteichoic acid 10 μg/mL. The data set is classed as cell-based. Put shortly: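 IL-6 was quantified by cytometric bead assay in supernatants of human blood (ACD-A) stimulated for 5 h with lipoteichoic acid at 10 μg/mL final. Compound exposure preceded stimulation for 60 min at 37 °C, 5% CO2.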

Data set [2] concerns the target IRAK4 (Homo sapiens (Human), UniProt Q9NWZ3). The data set is described as follows: IRAK4 Inhibition Assay. Particulars: ATP 500 μM; IRAK4 0.6 nM. Type of data set: biochemical. Put shortly: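 Mobility-shift kinase assay: 0.6 nM IRAK4, 500 μM ATP, 1.5 μM fluorescent peptide, 60 min, room temperature. Percent inhibition was normalised between enzyme-free and DMSO-only wells.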

The nature of data set [3]: Caco-2 Permeability Assay. The conditions noted are these: human, Caco-2, test compound 3 μM. Type of data set: in vitro ADME. Put shortly: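 Bidirectional permeability measured over 2 h at 37° C, compound dosed at 3 μM in the donor compartment (apical for absorptive, basolateral for secretive) with plain buffer as receiver.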
On the technique in general: Passage across Caco-2 layers is used to estimate intestinal permeability.

Bounds are passed on as bounds.

IRAK4, sequence (Q9NWZ3 whole entry, species assumed): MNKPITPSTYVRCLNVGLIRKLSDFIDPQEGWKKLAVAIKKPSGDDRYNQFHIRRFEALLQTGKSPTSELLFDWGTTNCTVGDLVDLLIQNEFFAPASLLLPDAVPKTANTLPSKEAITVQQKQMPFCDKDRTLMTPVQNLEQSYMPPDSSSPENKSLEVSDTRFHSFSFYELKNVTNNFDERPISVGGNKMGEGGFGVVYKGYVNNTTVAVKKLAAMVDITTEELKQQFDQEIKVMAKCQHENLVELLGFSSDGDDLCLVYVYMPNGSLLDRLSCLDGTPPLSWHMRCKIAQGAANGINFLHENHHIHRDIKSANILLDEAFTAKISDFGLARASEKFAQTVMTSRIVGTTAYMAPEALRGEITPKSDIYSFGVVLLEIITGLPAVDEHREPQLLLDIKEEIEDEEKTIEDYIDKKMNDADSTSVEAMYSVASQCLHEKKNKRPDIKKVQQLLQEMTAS

Compound `CC(C)Nc1cc(-n2ncc3cc(C#N)cnc32)ncc1-n1cc(C2CCOCC2)nn1` [Example 355, 1-(4-(isopropylamino)-5-(4-(tetrahydro-2H-pyran-4-yl)-1H-1,2,3-triazol-1-yl)pyridin-2-yl)-1H-pyrazolo[3,4-b]pyridine-5-carbonitrile] yielded a half-maximal effective concentration (EC50) in data set [1] of 240 nM. The IC50 in data set [2] turned out to be 7 nM. In data set [3], this compound registered a Papp at 2 h, 3 µM of 48.7 ×10⁻⁶ cm/s.

For `CC(C)Nc1cc(-n2ncc3cc(C#N)cnc32)ncc1-n1cc(C2CCN(S(C)(=O)=O)CC2)nn1` [Example 361, 1-(4-(isopropylamino)-5-(4-(1-(methylsulfonyl)piperidin-4-yl)-1H-1,2,3-triazol-1-yl)pyridin-2-yl)-1H-pyrazolo[3,4-b]pyridine-5-carbonitrile], in data set [1], the EC50 amounted to 360 nM. The half-inhibitory concentration (IC50) in data set [2] is 7 nM. In data set [3], this compound returned a Papp at 2 h, 3 µM of 5.6 ×10⁻⁶ cm/s.

For `CC(C)(F)CCc1cn(-c2cnc(-n3ncc4cc(C#N)cnc43)cc2NC2COC2)nn1` [Example 363, 1-(5-(4-(3-fluoro-3-methylbutyl)-1H-1,2,3-triazol-1-yl)-4-(oxetan-3-ylamino)pyridin-2-yl)-1H-pyrazolo[3,4-b]pyridine-5-carbonitrile], the half-maximal effective concentration (EC50) in data set [1] was found to be 330 nM. Also, the half-maximal inhibitory concentration (IC50) in data set [2] is 6 nM. In data set [3], the apparent permeability coefficient (Papp) at 2 h, 3 µM amounted to 15.6 ×10⁻⁶ cm/s.

As for `CC(C)(O)CCc1cn(-c2cnc(-n3ncc4cc(C#N)cnc43)cc2NC2CCC(F)C2)nn1` (stereo not drawn) [Example 364, 1-(4-((3-fluorocyclopentyl)amino)-5-(4-(3-hydroxy-3-methylbutyl)-1H-1,2,3-triazol-1-yl)pyridin-2-yl)-1H-pyrazolo[3,4-b]pyridine-5-carbonitrile], it took 250 nM to reach a half-maximal effect in data set [1] (EC50). The IC50 in data set [2] came out at 3 nM. Moreover, in data set [3], the Papp at 2 h, 3 µM is 4.5 ×10⁻⁶ cm/s.

With `CC(C)(O)CCc1cn(-c2cnc(-n3ncc4cc(C#N)cnc43)cc2NC2CCOC2)nn1` [Example 365, (S)-1-(5-(4-(3-hydroxy-3-methylbutyl)-1H-1,2,3-triazol-1-yl)-4-((tetrahydrofuran-3-yl)amino)pyridin-2-yl)-1H-pyrazolo[3,4-b]pyridine-5-carbonitrile], the EC50 in data set [1] was 410 nM. Moreover, the IC50 in data set [2] is 3 nM. Also, the Papp at 2 h, 3 µM in data set [3] is < 1.5 ×10⁻⁶ cm/s.

As to `CC(C)(O)CCc1cn(-c2cnc(-n3ncc4cc(C#N)cnc43)cc2NC2CC(F)(F)C2)nn1` [Example 367, 1-(4-((3,3-difluorocyclobutyl)amino)-5-(4-(3-hydroxy-3-methylbutyl)-1H-1,2,3-triazol-1-yl)pyridin-2-yl)-1H-pyrazolo[3,4-b]pyridine-5-carbonitrile], in data set [1], a half-maximal effect (EC50) was put at 230 nM. The IC50 in data set [2] amounted to 9 nM. Also, the apparent permeability (Papp) at 2 h, 3 µM in data set [3] was 3.6 ×10⁻⁶ cm/s.

Compound `CC(C)(O)CCc1cn(-c2cnc(-n3ncc4cc(C#N)cnc43)cc2N[C@H]2CC[C@H](F)C2)nn1` [Example 368, 1-(4-(((1S,3S)-3-fluorocyclopentyl)amino)-5-(4-(3-hydroxy-3-methylbutyl)-1H-1,2,3-triazol-1-yl)pyridin-2-yl)-1H-pyrazolo[3,4-b]pyridine-5-carbonitrile] registered a half-maximal effective concentration (EC50) in data set [1] of 180 nM. Also, the IC50 in data set [2] turned out to be 3 nM. This compound yielded an apparent permeability (Papp) at 2 h, 3 µM in data set [3] of 3.2 ×10⁻⁶ cm/s.

For the compound `CCNc1cc(-n2ncc3cc(C#N)cnc32)ncc1-n1cc(CCC(C)(C)O)nn1` [Example 369, 1-(4-(ethylamino)-5-(4-(3-hydroxy-3-methylbutyl)-1H-1,2,3-triazol-1-yl)pyridin-2-yl)-1H-pyrazolo[3,4-b]pyridine-5-carbonitrile], in data set [1], the concentration for a half-maximal effect (EC50) turned out to be 270 nM. Also, the IC50 in data set [2] is 7 nM. Also, in data set [3], the Papp at 2 h, 3 µM was 6.7 ×10⁻⁶ cm/s.

In data set [1], `CC(C)(O)CCc1cn(-c2cnc(-n3ncc4cc(C#N)cnc43)cc2NCCCF)nn1` [Example 370, 1-(4-((3-fluoropropyl)amino)-5-(4-(3-hydroxy-3-methylbutyl)-1H-1,2,3-triazol-1-yl)pyridin-2-yl)-1H-pyrazolo[3,4-b]pyridine-5-carbonitrile] yielded an EC50 of 280 nM. Besides, in data set [2], the IC50 came to 9 nM. In data set [3], this compound displayed a Papp at 2 h, 3 µM of 2.5 ×10⁻⁶ cm/s.

In data set [1], `CC(C)Nc1cc(-n2ncc3cc(C#N)c(N)nc32)ncc1-n1cc(CCC(C)(C)O)nn1` [Example 371, 6-amino-1-(5-(4-(3-hydroxy-3-methylbutyl)-1H-1,2,3-triazol-1-yl)-4-(isopropylamino)pyridin-2-yl)-1H-pyrazolo[3,4-b]pyridine-5-carbonitrile] yielded an EC50 of 130 nM. In data set [2], the concentration for half-maximal inhibition (IC50) turned out to be 1 nM. Besides, the Papp at 2 h, 3 µM in data set [3] is < 1.5 ×10⁻⁶ cm/s.

In turn, `CC(C)(O)CCc1cn(-c2cnc(-n3ncc4cc(C#N)cnc43)cc2N[C@H]2CC[C@@H](F)C2)nn1` [Example 372, 1-(4-(((1S,3R)-3-fluorocyclopentyl)amino)-5-(4-(3-hydroxy-3-methylbutyl)-1H-1,2,3-triazol-1-yl)pyridin-2-yl)-1H-pyrazolo[3,4-b]pyridine-5-carbonitrile] yielded an EC50 in data set [1] of 330 nM. For the same compound, in data set [2], the IC50 was 4 nM. This compound also displayed a Papp at 2 h, 3 µM in data set [3] of 3.6 ×10⁻⁶ cm/s.

Consider `CC(C)(F)CCc1cn(-c2cnc(-n3ncc4cc(C#N)cnc43)cc2N[C@@H]2CCOC2)nn1` [Example 373, (R)-1-(5-(4-(3-fluoro-3-methylbutyl)-1H-1,2,3-triazol-1-yl)-4-((tetrahydrofuran-3-yl)amino)pyridin-2-yl)-1H-pyrazolo[3,4-b]pyridine-5-carbonitrile], for which, in data set [1], a half-maximal effect (EC50) was put at 300 nM. Also, the IC50 in data set [2] worked out at 4 nM. This compound also yielded a Papp at 2 h, 3 µM in data set [3] of 27.7 ×10⁻⁶ cm/s.

In data set [1], `CC(C)(O)CCc1cn(-c2cnc(-n3ncc4cc(C#N)cnc43)cc2N[C@@H]2CCC[C@@H]2F)nn1` [Example 375, 1-(4-(((1R,2S)-2-fluorocyclopentyl)amino)-5-(4-(3-hydroxy-3-methylbutyl)-1H-1,2,3-triazol-1-yl)pyridin-2-yl)-1H-pyrazolo[3,4-b]pyridine-5-carbonitrile] came in with a half-maximal effective concentration (EC50) of 300 nM. Further, the concentration for half-maximal inhibition (IC50) in data set [2] stood at 1 nM. The compound further gave an apparent permeability (Papp) at 2 h, 3 µM in data set [3] of 6.8 ×10⁻⁶ cm/s.

In turn, `CC(C)(O)CCc1cn(-c2cnc(-n3ncc4cc(C#N)cnc43)cc2NC(CF)CF)nn1` [Example 377, 1-(4-((1,3-difluoropropan-2-yl)amino)-5-(4-(3-hydroxy-3-methylbutyl)-1H-1,2,3-triazol-1-yl)pyridin-2-yl)-1H-pyrazolo[3,4-b]pyridine-5-carbonitrile] displayed an EC50 in data set [1] of 240 nM. In data set [2], the IC50 was found to be 7 nM. Besides, the Papp at 2 h, 3 µM in data set [3] was < 1.5 ×10⁻⁶ cm/s.

Consider `CC(C)Nc1cc(-n2ncc3cc(C#N)cnc32)ncc1-n1cc(CCC(C)(C)OC(=O)CN)nn1` [Example 378, 4-(1-(6-(5-cyano-1H-pyrazolo[3,4-b]pyridin-1-yl)-4-(isopropylamino)pyridin-3-yl)-1H-1,2,3-triazol-4-yl)-2-methylbutan-2-yl glycinate], for which a half-maximal response in data set [1] (EC50) required 160 nM. Further, the half-inhibitory concentration (IC50) in data set [2] came to 2 nM. Also, the Papp at 2 h, 3 µM in data set [3] was < 1.5 ×10⁻⁶ cm/s.

In data set [1], `CC(C)(O)CCc1cn(-c2cnc(-n3ncc4cc(C#N)cnc43)cc2NC2COCC2F)nn1` (stereo not drawn) [Example 379, 1-(4-((4-fluorotetrahydrofuran-3-yl)amino)-5-(4-(3-hydroxy-3-methylbutyl)-1H-1,2,3-triazol-1-yl)pyridin-2-yl)-1H-pyrazolo [3,4-b]pyridine-5-carbonitrile] registered an EC50 of 140 nM. In data set [2], the IC50 is 5 nM. Besides, the Papp at 2 h, 3 µM in data set [3] is < 1.5 ×10⁻⁶ cm/s.

`CC(C)Nc1cc(-n2ncc3cc(C#N)cnc32)ncc1-n1cc(CCC(C)(C)OC(=O)C2CC2)nn1` [Example 382, 4-(1-(6-(5-cyano-1H-pyrazolo[3,4-b]pyridin-1-yl)-4-(isopropylamino)pyridin-3-yl)-1H-1,2,3-triazol-4-yl)-2-methylbutan-2-yl cyclopropanecarboxylate] registered an EC50 in data set [1] of 460 nM. Further, the half-inhibitory concentration (IC50) in data set [2] was 2 nM. The compound further had a Papp at 2 h, 3 µM in data set [3] of 24.8 ×10⁻⁶ cm/s.

In data set [1], `CC(C)Nc1cc(-n2ncc3cc(C#N)cnc32)ncc1-n1cc(CCC(C)(C)OC(=O)CN(C)C)nn1` [Example 384, 4-(1-(6-(5-cyano-1H-pyrazolo[3,4-b]pyridin-1-yl)-4-(isopropylamino)pyridin-3-yl)-1H-1,2,3-triazol-4-yl)-2-methylbutan-2-yl dimethylglycinate] yielded an EC50 of 250 nM. Also, the IC50 in data set [2] amounted to 2 nM. This compound also returned an apparent permeability (Papp) at 2 h, 3 µM in data set [3] of 13.1 ×10⁻⁶ cm/s.

`CC(C)Nc1cc(-n2ncc3cc(C#N)cnc32)ncc1-n1cc(C2CCN(C(=O)C(F)(F)F)CC2)nn1` [Example 386, 1-(4-(isopropylamino)-5-(4-(1-(2,2,2-trifluoroacetyl)piperidin-4-yl)-1H-1,2,3-triazol-1-yl)pyridin-2-yl)-1H-pyrazolo[3,4-b]pyridine-5-carbonitrile] gave an EC50 in data set [1] of 200 nM. Moreover, in data set [2], the concentration for half-maximal inhibition (IC50) was determined as 4 nM. Also, in data set [3], the Papp at 2 h, 3 µM stood at 24.8 ×10⁻⁶ cm/s.

In turn, `CC(C)Nc1cc(-n2ncc3cc(C#N)cnc32)ncc1-n1cc(CC[C@](C)(O)CO)nn1` [Example 387, (S)-1-(5-(4-(3,4-dihydroxy-3-methylbutyl)-1H-1,2,3-triazol-1-yl)-4-(isopropylamino)pyridin-2-yl)-1H-pyrazolo[3,4-b]pyridine-5-carbonitrile] returned a concentration for a half-maximal effect (EC50) in data set [1] of 240 nM. In addition, the IC50 in data set [2] amounted to 8 nM. For the same compound, the apparent permeability coefficient (Papp) at 2 h, 3 µM in data set [3] is < 1.5 ×10⁻⁶ cm/s.

As for `CCCNc1cc(-n2ncc3cc(C#N)cnc32)ncc1-n1cc(CCC(C)(C)O)nn1` [Example 389, 1-(5-(4-(3-hydroxy-3-methylbutyl)-1H-1,2,3-triazol-1-yl)-4-(propylamino)pyridin-2-yl)-1H-pyrazolo[3,4-b]pyridine-5-carbonitrile], a half-maximal effect in data set [1] (EC50) was put at 310 nM. In addition, the IC50 in data set [2] was 14 nM. Also, the Papp at 2 h, 3 µM in data set [3] was found to be 30.2 ×10⁻⁶ cm/s.
